In patent publication US20090143279A1 (priority 2007, published 2009):
Where two headings read alike, the source gives them in different places.

Key:
[1] = tested on: mtOXPHOS transcripts; type: cell-based, mouse
[2] = tested on: cytochrome c; type: cell-based, mouse
[3] = tested on: mitochondrial membrane potential; type: cell-based, mouse
[4] = tested on: cellular dehydrogenase activity
[5] = tested on: C2C12 myotubes
[6] = tested on: reactive oxygen species; type: cell-based, mouse
[7] = tested on: OXPHOS gene expression; type: cell-based, mouse
[8] = tested on: nuOXPHOS transcripts; type: cell-based, mouse
[9] = composite Z-score vs mock-treated (DMSO) wells, Conc 20 μM
[10] = normalized composite Z-score vs mock-treated (DMSO) wells, Conc 20 μM
[11] = composite Z-score vs DMSO wells, Conc 20 μM
[12] = 20 μM, composite Z-score vs DMSO
[13] = Conc 20 μM, normalized score vs mock-treated (DMSO) wells
[14] = Table 4, C2C12 myotubes, 48 h, composite Z-score
[15] = composite Z-score vs DMSO, Conc 20 μM
[16] = Table 7, C2C12 myotubes, 48 h, composite Z-score
[17] = composite Z-score vs mock-treated (DMSO) wells, concentration of each compound in μM

Sequence of cytochrome c (P62897 whole entry): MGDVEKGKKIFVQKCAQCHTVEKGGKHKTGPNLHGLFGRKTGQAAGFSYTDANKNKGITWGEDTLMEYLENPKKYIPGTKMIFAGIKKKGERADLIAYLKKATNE

COC(=O)C[C@H]1C(C)(C)C(=O)[C@@H]2CC3C4=CC(=O)O[C@@H](c5ccoc5)[C@]4(C)CC[C@@H]3[C@@]1(C)C2=O (stereo partly shown) [carapin]
mitoOX [1, 9]: 0.058 | cyt c [2, 9]: −0.096 | ΔΨm [3, 9]: −0.524 | MTT [4, 9]: −0.925 | Viability [5, 9]: 1.424 | ROS [6, 9]: 1.897 | GE-HTS [7, 9]: 0.512 | nucOX [8, 9]: 0.665

khayanthone
mitoOX [1, 9]: 1.095 | cyt c [2, 9]: −0.669 | ΔΨm [3, 9]: 0.962 | MTT [4, 9]: −0.382 | Viability [5, 9]: 1.156 | ROS [6, 9]: 0.015 | GE-HTS [7, 9]: 1.491 | nucOX [8, 9]: 1.510

C=C1CC[C@H]2O[C@]2(C)CC[C@@H]2[C@@H]1CC2(C)C [carylophyllene oxide]
mitoOX [1, 10]: −0.324 | cyt c [2, 10]: 0.321 | ΔΨm [3, 10]: −0.246 | MTT [4, 10]: −0.713 | Viability [5, 10]: −0.547 | ROS [6, 10]: 0.636 | GE-HTS [7, 10]: −0.087 | nucOX [8, 10]: 0.060

CC1(C)C(=O)CC[C@@]2(C)C1C[C@@H](O)[C@@]1(C)C3=CC(=O)O[C@@H](c4ccoc4)[C@]3(C)CCC21 (stereo partly shown) [dihydro-7-desacetyldeoxygedunin]
mitoOX [1, 10]: −1.218 | cyt c [2, 10]: 0.599 | ΔΨm [3, 10]: −0.170 | MTT [4, 10]: −1.403 | Viability [5, 10]: −0.527 | ROS [6, 10]: 0.608 | GE-HTS [7, 10]: −0.961 | nucOX [8, 10]: −0.719

CC(C)=CCc1c(O)cc(C)oc1=O [2-isoprenyl-3-hydroxy-5-methyl-a-pyrone]
mitoOX [1, 9]: 0.271 | cyt c [2, 9]: −0.568 | ΔΨm [3, 9]: −0.641 | MTT [4, 9]: 0.055 | Viability [5, 9]: −1.025 | ROS [6, 9]: 1.032 | GE-HTS [7, 9]: 0.309 | nucOX [8, 9]: 0.277

Cc1onc(-c2c(Cl)cccc2Cl)c1C(=O)N[C@@H]1C(=O)N2[C@@H]1SC(C)(C)[C@@H]2C(=O)O [dicloxacillin sodium]
mitoOX [1, 11]: 0.870 | cyt c [2, 11]: −1.277 | ΔΨm [3, 11]: 0.196 | MTT [4, 11]: −0.587 | Viability [5, 11]: −0.214 | ROS [6, 11]: −0.070 | GE-HTS [7, 11]: 0.661 | nucOX [8, 11]: 0.533

Cc1cc(C2CCCCC2)n(O)c(=O)c1 [ciclopirox olamine]
mitoOX [1, 12]: −0.569 | cyt c [2, 12]: −0.381 | ΔΨm [3, 12]: 2.355 | MTT [4, 12]: −3.390 | Viability [5, 12]: −1.409 | ROS [6, 12]: −1.545 | GE-HTS [7, 12]: −0.965 | nucOX [8, 12]: −1.098

phytol
mitoOX [1, 10]: −0.270 | cyt c [2, 10]: 0.020 | ΔΨm [3, 10]: −0.233 | MTT [4, 10]: −0.544 | Viability [5, 10]: −0.520 | ROS [6, 10]: 0.940 | GE-HTS [7, 10]: −0.177 | nucOX [8, 10]: −0.098

O=c1cc(-c2cc(O)c(O)c(O)c2)oc2cc(O)cc(O)c12 [hieracin, reference compound]
mitoOX (composite Z-score) [1, 13]: −1.009 | cyt c (composite Z-score) [2, 13]: 0.057 | ΔΨm (composite Z-score) [3, 13]: −1.902 | ΔΨm ([3]; Table 4, C2C12 myotubes, 48 h, JC-1, composite Z-score): −1.902 | MTT (composite Z-score) [4, 13]: −0.557 | MTT [4, 14]: −0.557 | Viability (composite Z-score) [5, 13]: 1.425 | Viability [5, 14]: 1.425 | ROS (composite Z-score) [6, 13]: −0.329 | ROS [6, 14]: −0.329 | GE-HTS (composite Z-score) [7, 13]: −0.648 | nucOX (composite Z-score) [8, 13]: −0.421

COc1cc(-c2coc3cc(OCc4ccccc4)c(OC)c(O)c3c2=O)cc(OCc2ccccc2)c1OC [irigenin, dibenzyl ether]
mitoOX [1, 15]: −0.602 | cyt c [2, 15]: 0.012 | ΔΨm [3, 15]: 0.178 | MTT [4, 15]: −0.793 | Viability [5, 15]: −1.724 | ROS [6, 15]: 0.088 | GE-HTS [7, 15]: −0.325 | nucOX [8, 15]: −0.163

7-deshydroxypyrogallin-4-carboxylic acid
mitoOX [1, 9]: −0.770 | cyt c [2, 9]: 0.419 | ΔΨm [3, 9]: −1.109 | MTT [4, 9]: −0.460 | Viability [5, 9]: 0.121 | ROS [6, 9]: −0.210 | GE-HTS [7, 9]: −0.997 | nucOX [8, 9]: −1.039

COC1=CC(=O)C(C(=O)c2ccccc2)=CC1=O [2-benzoyl-5-methoxybenzoquinone]
mitoOX [1, 15]: −0.985 | cyt c [2, 15]: 0.206 | ΔΨm [3, 15]: −0.229 | MTT [4, 15]: −1.489 | Viability [5, 15]: −0.284 | ROS [6, 15]: −0.542 | GE-HTS [7, 15]: −0.699 | nucOX [8, 15]: −0.511

CC(=O)c1ccc(O)c(CC=C(C)C)c1 [3-prenyl-4-hydroxyacetophenone]
mitoOX [1, 15]: 0.804 | cyt c [2, 15]: 0.220 | ΔΨm [3, 15]: −0.010 | MTT [4, 15]: −1.066 | Viability [5, 15]: −0.696 | ROS [6, 15]: 2.418 | GE-HTS [7, 15]: 0.607 | nucOX [8, 15]: 0.477

OC(CCN1CCCCC1)(c1ccccc1)C1CC2C=CC1C2 (stereo not shown) [biperiden]
mitoOX [1]: −1.312 | cyt c [2]: 0.053 | ΔΨm [3]: −0.517 | MTT [4]: −0.886 | Viability [5]: 0.740 | ROS [6]: 2.725 | GE-HTS [7]: −0.817 | nucOX [8]: −0.496

C[C@H]1C(=O)CC[C@@H]2[C@]1(C)CC[C@H]1[C@@]2(C)CC[C@@]2(C)[C@@H]3CC(C)(C)CC[C@]3(C)CC[C@]12C [friedelin]
mitoOX [1, 15]: −0.600 | cyt c [2, 15]: 0.614 | ΔΨm [3, 15]: −0.867 | MTT [4, 15]: −1.362 | Viability [5, 15]: 0.082 | ROS [6, 15]: 0.449 | GE-HTS [7, 15]: −1.043 | nucOX [8, 15]: −1.150

CC(C)CCC[C@@H](C)[C@H]1CC[C@H]2[C@@H]3CCC4CCCC[C@]4(C)[C@H]3CC[C@]12C (stereo partly shown) [cholestane]
mitoOX [1, 15]: −0.640 | cyt c [2, 15]: 0.043 | ΔΨm [3, 15]: −0.945 | MTT [4, 15]: −1.057 | Viability [5, 15]: 0.941 | ROS [6, 15]: 0.155 | GE-HTS [7, 15]: −0.678 | nucOX [8, 15]: −0.651

COc1cc(OC)c2c(OC)c(-c3ccc4c(c3)OCO4)c(=O)oc2c1 [derrusnin]
mitoOX [1, 10]: 0.417 | cyt c [2, 10]: 0.511 | ΔΨm [3, 10]: 0.025 | MTT [4, 10]: −1.630 | Viability [5, 10]: 1.067 | ROS [6, 10]: 4.060 | GE-HTS [7, 10]: 0.039 | nucOX [8, 10]: −0.129

C[C@H](CCC(=O)O)[C@H]1CC[C@H]2[C@@H]3CC[C@H]4C[C@H](O)CC[C@]4(C)[C@H]3C[C@H](O)[C@]12C [allodeoxycholic acid]
mitoOX [1, 15]: −0.773 | cyt c [2, 15]: −2.903 | ΔΨm [3, 15]: 0.404 | MTT [4, 15]: −2.126 | Viability [5, 15]: −1.161 | ROS [6, 15]: −0.164 | GE-HTS [7, 15]: −0.905 | nucOX [8, 15]: −0.903

COc1cccc2c1C(=O)c1c(O)c3c(c(O)c1C2=O)C[C@@](O)(C(C)=O)C[C@@H]3O[C@H]1C[C@H](N)[C@H](O)[C@H](C)O1 [Daunorubicin, reference compound]
mitoOX [1]: 1.373 | mito-OXPHOS Z [1, 16]: 1.37 | cyt c [2]: −3.722 | ΔΨm [3]: −2.337 | MTT [4]: −5.009 | Viability [5]: −3.547 | ROS [6]: −2.398 | GE-HTS [7]: −1.008 | nucOX [8]: −2.094 | nucOXPHOS Z [8, 16]: −2.09

O=C(CC[N+](=O)[O-])OC[C@H]1O[C@@H](O)[C@H](OC(=O)CC[N+](=O)[O-])[C@@H](OC(=O)CC[N+](=O)[O-])[C@@H]1OC(=O)CC[N+](=O)[O-] [endecaphyllin X]
mitoOX [1, 17]: −0.741 | cyt c [2, 17]: −0.219 | ΔΨm [3, 17]: 0.142 | MTT [4, 17]: −1.007 | Viability [5, 17]: 0.158 | ROS [6, 17]: −0.292 | GE-HTS [7, 17]: −0.660 | nucOX [8, 17]: −0.566
